≈ marks a conversion by molar mass, not a printed value. Calls of active or inactive are those of the source. The calls are words filed in the database; no cut-off is given here.
Assays:
Staphylococcus aureus [1] = experiment: Antibacterial activity against methicillin-sensitive Staphylococcus aureus 15 assessed as prevention of visible bacterial growth incubated for 18 hrs by broth dilution method; assay type: functional, organism-based
Escherichia coli [2] = experiment: Antibacterial activity against extended-spectrum beta-lactamase non-producing Escherichia coli ATCC 25922 assessed as prevention of visible bacterial growth incubated for 18 hrs by broth dilution method; assay type: functional, organism-based
SW1990 = experiment: Cytotoxicity against human SW1990 cells incubated for 72 hrs by MTT assay; assay type: functional, cell-based; details: SW1990, 72 h
PC-3 = experiment: Cytotoxicity against human PC3 cells incubated for 72 hrs by MTT assay; assay type: functional, cell-based; details: PC-3, 72 h
NCI-H1299 = experiment: Cytotoxicity against human NCI-H1299 cells incubated for 72 hrs by MTT assay; assay type: functional, cell-based; details: NCI-H1299, 72 h
Staphylococcus aureus [3] = experiment: Antibacterial activity against methicillin-resistant Staphylococcus aureus ATCC 33591 assessed as prevention of visible bacterial growth incubated for 18 hrs by broth dilution method; assay type: functional; details: ATCC 33591, 18 h
Staphylococcus aureus [4] = experiment: Antibacterial activity against methicillin-resistant Staphylococcus aureus 16-30 assessed as prevention of visible bacterial growth incubated for 18 hrs by broth dilution method; assay type: functional; details: 16-30, 18 h
Enterococcus faecalis [5] = experiment: Antibacterial activity against vancomycin-resistant Enterococcus faecalis ATCC 51299 assessed as prevention of visible bacterial growth incubated for 18 hrs by broth dilution method; assay type: functional; details: ATCC 51299, 18 h
Enterococcus faecalis [6] = experiment: Antibacterial activity against vancomycin-resistant Enterococcus faecalis ATCC 51575 assessed as prevention of visible bacterial growth incubated for 18 hrs by broth dilution method; assay type: functional; details: ATCC 51575, 18 h
Enterococcus faecium [7] = experiment: Antibacterial activity against vancomycin-resistant Enterococcus faecium ATCC 700221 assessed as prevention of visible bacterial growth incubated for 18 hrs by broth dilution method; assay type: functional; details: ATCC 700221, 18 h
Enterococcus faecium [8] = experiment: Antibacterial activity against vancomycin-resistant Enterococcus faecium 12-1 assessed as prevention of visible bacterial growth incubated for 18 hrs by broth dilution method; assay type: functional; details: 12-1, 18 h
[9] = system: Staphylococcus epidermidis; experiment: Antibacterial activity against methicillin-sensitive Staphylococcus epidermidis ATCC 12228 assessed as prevention of visible bacterial growth incubated for 18 hrs by broth dilution method; assay type: functional, organism-based
[10] = system: Staphylococcus epidermidis; experiment: Antibacterial activity against methicillin-sensitive Staphylococcus epidermidis 16-4 assessed as prevention of visible bacterial growth incubated for 18 hrs by broth dilution method; assay type: functional, organism-based
[11] = system: Staphylococcus epidermidis; experiment: Antibacterial activity against methicillin-resistant Staphylococcus epidermidis 16-5 assessed as prevention of visible bacterial growth incubated for 18 hrs by broth dilution method; assay type: functional, organism-based
Staphylococcus aureus [12] = experiment: Antibacterial activity against methicillin-sensitive Staphylococcus aureus ATCC 29213 assessed as prevention of visible bacterial growth incubated for 18 hrs by broth dilution method; assay type: functional, organism-based
Staphylococcus aureus [13] = experiment: Antibacterial activity against methicillin-sensitive Staphylococcus aureus 16-1 assessed as prevention of visible bacterial growth incubated for 18 hrs by broth dilution method; assay type: functional, organism-based
Enterococcus faecalis [14] = experiment: Antibacterial activity against vancomycin-sensitive Enterococcus faecalis ATCC 29212 assessed as prevention of visible bacterial growth incubated for 18 hrs by broth dilution method; assay type: functional, organism-based
Enterococcus faecalis [15] = experiment: Antibacterial activity against vancomycin-sensitive Enterococcus faecalis 16-6 assessed as prevention of visible bacterial growth incubated for 18 hrs by broth dilution method; assay type: functional, organism-based
Enterococcus faecium [16] = experiment: Antibacterial activity against vancomycin-sensitive Enterococcus faecium 16-5 assessed as prevention of visible bacterial growth incubated for 18 hrs by broth dilution method; assay type: functional, organism-based
Escherichia coli [17] = experiment: Antibacterial activity against extended-spectrum beta-lactamase producing Escherichia coli ATCC 35218 assessed as prevention of visible bacterial growth incubated for 18 hrs by broth dilution method; assay type: functional, organism-based
Klebsiella pneumoniae [18] = experiment: Antibacterial activity against extended-spectrum beta-lactamase producing Klebsiella pneumoniae 700603 assessed as prevention of visible bacterial growth incubated for 18 hrs by broth dilution method; assay type: functional, organism-based
Klebsiella pneumoniae [19] = experiment: Antibacterial activity against extended-spectrum beta-lactamase non-producing Klebsiella pneumoniae 16-2 assessed as prevention of visible bacterial growth incubated for 18 hrs by broth dilution method; assay type: functional, organism-based
Pseudomonas aeruginosa = experiment: Antibacterial activity against Pseudomonas aeruginosa ATCC 27853 assessed as prevention of visible bacterial growth incubated for 18 hrs by broth dilution method; assay type: functional, organism-based
[20] = system: Acinetobacter calcoaceticus; experiment: Antibacterial activity against Acinetobacter calcoaceticus ATCC 19606 assessed as prevention of visible bacterial growth incubated for 18 hrs by broth dilution method; assay type: functional, organism-based
Enterobacter cloacae = experiment: Antibacterial activity against Enterobacter cloacae ATCC 43560 assessed as prevention of visible bacterial growth incubated for 18 hrs by broth dilution method; assay type: functional, organism-based
Shigella flexneri = experiment: Antibacterial activity against Shigella flexneri ATCC 12022 assessed as prevention of visible bacterial growth incubated for 18 hrs by broth dilution method; assay type: functional, organism-based

Compound | Activity (Staphylococcus aureus [1]) | Activity (Escherichia coli [2]) | IC50 (SW1990) | IC50 (PC-3) | IC50 (NCI-H1299) | MIC (Staphylococcus aureus [3]) | MIC (Staphylococcus aureus [4]) | MIC (Enterococcus faecalis [5]) | MIC (Enterococcus faecalis [6]) | MIC (Enterococcus faecium [7]) | MIC (Enterococcus faecium [8]) | Activity [9] | Activity [10] | Activity [11] | Activity (Staphylococcus aureus [12]) | Activity (Staphylococcus aureus [13]) | Activity (Enterococcus faecalis [14]) | Activity (Enterococcus faecalis [15]) | Activity (Enterococcus faecium [16]) | Activity (Escherichia coli [17]) | further results
COc1cc2oc3c(c(=O)c2cc1O)C(=O)C1=C(CCc2cc4c(c(O)c21)C(=O)N1CCO[C@]1(C)C4)C3=O | inactive | inactive | 20.9 nM | 34.3 nM | 107 nM | 0.25 µg/mL (≈ 0.485 µM) | 0.12 µg/mL (≈ 0.233 µM) | 0.25 µg/mL (≈ 0.485 µM) | 0.5 µg/mL (≈ 0.97 µM) | 0.5 µg/mL (≈ 0.97 µM) | 0.25 µg/mL (≈ 0.485 µM) | inactive | inactive | inactive | inactive | inactive | inactive | inactive | inactive | inactive | Activity (Klebsiella pneumoniae [18]): inactive; Activity (Klebsiella pneumoniae [19]): inactive; Activity (Pseudomonas aeruginosa): inactive; Activity [20]: inactive; Activity (Enterobacter cloacae): inactive; Activity (Shigella flexneri): inactive
COc1cc2oc3c(c(=O)c2cc1OC)C(=O)c1c(ccc2cc4c(c(O)c12)C(=O)N1CCO[C@]1(C)C4)C3=O | – | – | 704 nM | 1310 nM | 252 nM | 0.5 µg/mL (≈ 0.948 µM) | 0.5 µg/mL (≈ 0.948 µM) | 0.12 µg/mL (≈ 0.227 µM) | 0.12 µg/mL (≈ 0.227 µM) | 1 µg/mL (≈ 1.9 µM) | 1 µg/mL (≈ 1.9 µM) | – | – | – | – | – | – | – | – | – | –
COc1cc2oc3c(O)c4c(c(O)c3c(=O)c2cc1OC)-c1c(cc2c(c1O)C(=O)N1CCO[C@]1(C)C2)CC4 | inactive | inactive | 2.2 nM | 2.2 nM | 0.1 nM | 0.06 µg/mL (≈ 0.113 µM) | 0.06 µg/mL (≈ 0.113 µM) | 0.06 µg/mL (≈ 0.113 µM) | 0.12 µg/mL (≈ 0.226 µM) | 0.12 µg/mL (≈ 0.226 µM) | 0.03 µg/mL (≈ 0.0564 µM) | inactive | inactive | inactive | inactive | inactive | inactive | inactive | inactive | inactive | Activity (Klebsiella pneumoniae [18]): inactive; Activity (Klebsiella pneumoniae [19]): inactive; Activity (Pseudomonas aeruginosa): inactive; Activity [20]: inactive; Activity (Enterobacter cloacae): inactive; Activity (Shigella flexneri): inactive
COc1cc2oc3c(c(=O)c2cc1OC)C(=O)C1=C(CCc2cc4c(c(O)c21)C(=O)N1CCO[C@]1(C)C4)C3=O | inactive | inactive | 5.4 nM | 3.5 nM | 2 nM | 0.06 µg/mL (≈ 0.113 µM) | 0.12 µg/mL (≈ 0.227 µM) | 0.12 µg/mL (≈ 0.227 µM) | 0.12 µg/mL (≈ 0.227 µM) | 0.06 µg/mL (≈ 0.113 µM) | 0.12 µg/mL (≈ 0.227 µM) | inactive | inactive | inactive | inactive | inactive | inactive | inactive | inactive | inactive | Activity (Klebsiella pneumoniae [18]): inactive; Activity (Klebsiella pneumoniae [19]): inactive; Activity (Pseudomonas aeruginosa): inactive; Activity [20]: inactive; Activity (Enterobacter cloacae): inactive; Activity (Shigella flexneri): inactive
COc1cc2oc3c(O)c4c(c(O)c3c(=O)c2cc1O)-c1c(cc2c(c1O)C(=O)N1CCO[C@]1(C)C2)CC4 | inactive | inactive | 0.8 nM | 4.4 nM | 49.1 nM | 0.016 µg/mL (≈ 0.0309 µM) | 0.008 µg/mL (≈ 0.0155 µM) | 0.016 µg/mL (≈ 0.0309 µM) | 0.016 µg/mL (≈ 0.0309 µM) | 0.03 µg/mL (≈ 0.058 µM) | 0.03 µg/mL (≈ 0.058 µM) | inactive | inactive | inactive | inactive | inactive | inactive | inactive | inactive | inactive | Activity (Klebsiella pneumoniae [18]): inactive; Activity (Klebsiella pneumoniae [19]): inactive; Activity (Pseudomonas aeruginosa): inactive; Activity [20]: inactive; Activity (Enterobacter cloacae): inactive; Activity (Shigella flexneri): inactive
C[C@H]1COc2c(N3CCN(C)CC3)c(F)cc3c(=O)c(C(=O)O)cn1c23.C[C@H]1COc2c(N3CCN(C)CC3)c(F)cc3c(=O)c(C(=O)O)cn1c23.O [LEVOFLOXACIN] | – | – | – | – | – | 0.12 µg/mL | 32 µg/mL | 1 µg/mL | 2 µg/mL | 128 µg/mL | 128 µg/mL | – | – | – | – | – | – | – | – | – | –
